# Test results published in patent US6867305B2, “Synthesis of epothilones, intermediates thereto and analogues thereof” (Sloan-Kettering Institute for Cancer Research, priority 1996, dated 2005).
# Tested on: SK-OV-3 ovary adenocarcinoma xenograft
# Assay: Human tumor xenograft in nude mice
# Type: in vivo
# How it was run: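 Male athymic nu/nu mice bearing s.c. flank tumours from 5×10^6 cells or 30-50 mg tissue; dosing began at 35-200 mm^3 as 6 hr tail-vein i.v. infusion every other day ×5 unless otherwise indicated. Caliper tumour volume, body weight and lethality recorded every other day; 3-5 mice per group.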
# [1] = SK-OV-3, dEpoB 30 mg/kg, Taxol 15 mg/kg, Q2Dx6, 6-hr i.v. infusion
structure (smiles),measurement,setting,value
"C/C1=C/C[C@@H](/C(C)=C/c2csc(C)n2)OC(=O)C[C@H](O)C(C)(C)C(=O)[C@H](C)[C@@H](O)[C@@H](C)CCC1 [dEpoB, 12,13-desoxyepothilone B]",Therapeutic Effect Rank Order,"SK-OV-3, i.v. infusion",Taxol>>dEpoB
same,Therapeutic Effect Rank Order,"SK-OV-3, i.v. or i.p., ref 19 (Table 6)",dEpoB≈Taxol
same,Therapeutic Effects dEpoB vs Taxol,"SK-OV-3, dEpoB 30 mg/kg, Taxol 15 mg/kg, Q2Dx6",<<
same,Lowest Average Tumor Size (T/C),[1],0.17
same,Tumor Disappearance,[1],0/3
